What is called EC50 is the concentration giving half of the maximal effect.

This assay concerns human LAD2 cells. It is filed as cell-based. The procedure: LAD2 cells (20000 cells/well, 96-well plates and 10,000 cells/well in 384-well plates) were incubated with compounds for 30 min. The R-hexosaminidase released into the supernatants and in cell lysates was quantified using the fluorogenic substrate 4-methylumbelliferyl-N-acetyl-b-D-glucosaminide.
On the day of the assay, the lyophilized peptides were dissolved in DMSO and/or PBS 1× pH 7.4, to obtain stock solutions. The stock solutions were used to prepare working serial dilutions to have final concentrations in assay ranging from 50, 100 or 300 to 0.1 or 0.001 μM. Each peptide was tested in biological duplicates. When compounds were dissolved in DMSO, the final solvent concentration in assay was 0.5% (v/v).
The percentage of degranulation, expressed as % of R-hexosaminidase release, was calculated by dividing the fluorescence signal of the supernatant by the sum of the signals from the supernatant and cell pellet (lysed with Triton X-100, final 1%) and multiplying by 100.
Dose-response curves were generated by plotting the % of R-hexosaminidase release versus total release of cells treated with triton (y-axis) against the concentrations of peptides tested (x-axis). The Mast Cell Degranulation (MCD) EC50 values and standard errors were calculated using XLfit 5.5.0.5 based on the following equation:
4 Parameter Sigmoidal Model: f=(A+((B−A)/(1+((C/x)^D))))
where A=Emin, B=Emax, C=EC50 and D=slope

*1 amine or outer side, *2 acyl side, *3 side chain or, on linkers, in order; H or OH if unused. Where a SMILES comes first, the peptide text is derived from it. Side-chain parts run from the residue outwards. [ ]: non-standard residue; d: D form. The star is where a group is joined. C20 diacid = O=C(O)CCCCCCCCCCCCCCCCCCC(=O)*; C16 diacid = O=C(O)CCCCCCCCCCCCCCC(=O)*; γGlu = O=C(O)[C@H](CCC(=O)[*:2])N[*:1]; NMeI = CC[C@H](C)[C@H](NC)C(=O)O; AEEA = NCCOCCOCC(=O)O; Aib = CC(C)(N)C(=O)O Some results are limits rather than exact numbers.

The compound `CC[C@H](C)[C@H](NC(C)=O)C(=O)N[C@H](C(=O)N[C@@H](CC(C)C)C(=O)N[C@@H](CO)C(=O)N[C@@H](CC(C)C)C(=O)N[C@@H](CC(=O)O)C(=O)N[C@@H](C(=O)N1CCC[C@H]1C(=O)N[C@H](C(=O)N[C@@H](CCCCN)C(=O)N[C@@H](CC(C)C)C(=O)N[C@@H](CCCCNC(=O)COCCOCCNC(=O)COCCOCCNC(=O)CC[C@H](NC(=O)CCCCCCCCCCCCCCCCCCC(=O)O)C(=O)O)C(=O)N[C@@H](CCCCN)C(=O)N[C@H](C(=O)N[C@@H](CC(C)C)C(=O)N[C@@H](CC(C)C)C(=O)N[C@@H](CCC(=O)O)C(=O)N[C@@H](CCC(N)=O)C(=O)N[C@@H](CCC(=O)O)C(=O)N[C@@H](CCCCN)C(=O)N[C@@H](CCC(N)=O)C(=O)N[C@@H](CCCCN)C(=O)N[C@@H](CCCCN)C(=O)N[C@@H](CCC(N)=O)C(=O)N[C@@H](CCCNC(=N)N)C(=O)N[C@@H](CCC(=O)O)C(=O)N[C@@H](CCC(N)=O)C(=O)N[C@@H](C)C(=O)N[C@@H](CCC(=O)O)C(=O)N[C@H](C(=O)N[C@@H](CC(N)=O)C(=O)NC(C)(C)C(=O)N[C@@H](CCC(N)=O)C(=O)N[C@H](C(=O)N[C@@H](CC(C)C)C(=O)N[C@@H](C)C(=O)N[C@@H](CCC(N)=O)C(=O)N[C@H](C(N)=O)C(C)C)[C@@H](C)CC)[C@@H](C)O)[C@@H](C)CC)[C@@H](C)CC)C(C)C)C(C)C` [Cmpd 238] (Ac-IVLSLD[dV]PIKLK([AEEA-AEEA-γGlu-C20 diacid])KILLEQEKQKKQREQAETN[Aib]QILAQV-NH2) registered a concentration giving a half-maximal response (EC50) of 36.7 µM.
In the case of `CC[C@H](C)[C@H](NC(C)=O)C(=O)N[C@H](C(=O)N[C@@H](CC(C)C)C(=O)N[C@@H](CO)C(=O)N[C@@H](CC(C)C)C(=O)N[C@@H](CC(=O)O)C(=O)N[C@@H](C(=O)N1CCC[C@H]1C(=O)N[C@H](C(=O)N[C@@H](C)C(=O)N[C@@H](CC(C)C)C(=O)N[C@@H](CCCCNC(=O)CC[C@H](NC(=O)CCCCCCCCCCCCCCC(=O)O)C(=O)O)C(=O)N[C@@H](CCCCN)C(=O)N[C@H](C(=O)N[C@@H](CC(C)C)C(=O)N[C@@H](CC(C)C)C(=O)N[C@@H](CCC(=O)O)C(=O)N[C@@H](CCC(N)=O)C(=O)N[C@@H](CCC(=O)O)C(=O)N[C@@H](CCCCN)C(=O)N[C@@H](CCC(N)=O)C(=O)N[C@@H](CCCCN)C(=O)N[C@@H](CCCCN)C(=O)N[C@@H](CCC(N)=O)C(=O)N[C@@H](CCCNC(=N)N)C(=O)N[C@@H](CCC(=O)O)C(=O)N[C@@H](CCC(N)=O)C(=O)N[C@@H](C)C(=O)N[C@@H](CCC(=O)O)C(=O)N[C@H](C(=O)N[C@@H](CC(N)=O)C(=O)NC(C)(C)C(=O)N[C@@H](CCC(N)=O)C(=O)N[C@H](C(=O)N[C@@H](CC(C)C)C(=O)N[C@@H](C)C(=O)N[C@@H](CCC(N)=O)C(=O)N[C@H](C(N)=O)C(C)C)[C@@H](C)CC)[C@@H](C)O)[C@@H](C)CC)[C@@H](C)CC)C(C)C)C(C)C` [Cmpd 163] (Ac-IVLSLD[dV]PIALK([γGlu-C16 diacid])KILLEQEKQKKQREQAETN[Aib]QILAQV-NH2) it was above 100 µM; in that of `CC[C@H](C)[C@H](NC)C(=O)N[C@H](C(=O)N[C@@H](CC(C)C)C(=O)N[C@@H](CO)C(=O)N[C@@H](CC(C)C)C(=O)N[C@@H](CC(=O)O)C(=O)N[C@@H](C(=O)N1CCC[C@H]1C(=O)N[C@H](C(=O)N[C@@H](CCCCN)C(=O)N[C@@H](CC(C)C)C(=O)N[C@@H](CCCCNC(=O)CC[C@H](NC(=O)CCCCCCCCCCCCCCCCCCC(=O)O)C(=O)O)C(=O)N[C@@H](CCCCN)C(=O)N[C@H](C(=O)N[C@@H](CC(C)C)C(=O)N[C@@H](CC(C)C)C(=O)N[C@@H](CCC(=O)O)C(=O)N[C@@H](CCC(N)=O)C(=O)N[C@@H](CCC(=O)O)C(=O)N[C@@H](CCCCN)C(=O)N[C@@H](CCC(N)=O)C(=O)N[C@@H](CCCCN)C(=O)NC(C)(C)C(=O)N[C@@H](CCC(N)=O)C(=O)N[C@@H](CCCNC(=N)N)C(=O)N[C@@H](CCC(=O)O)C(=O)N[C@@H](CCC(N)=O)C(=O)N[C@@H](C)C(=O)N[C@@H](CCC(=O)O)C(=O)N[C@H](C(=O)N[C@@H](CC(N)=O)C(=O)NC(C)(C)C(=O)N[C@@H](CCC(N)=O)C(=O)N[C@H](C(=O)N[C@@H](CC(C)C)C(=O)N[C@@H](C)C(=O)N[C@@H](CCC(N)=O)C(=O)N[C@H](C(N)=O)C(C)C)[C@@H](C)CC)[C@@H](C)O)[C@@H](C)CC)[C@@H](C)CC)C(C)C)C(C)C` [Cmpd 215] (H-[NMeI]VLSLD[dV]PIKLK([γGlu-C20 diacid])KILLEQEKQK[Aib]QREQAETN[Aib]QILAQV-NH2), above 100 µM.
The result for `CC[C@H](C)[C@H](NC(C)=O)C(=O)N[C@H](C(=O)N[C@@H](CC(C)C)C(=O)N[C@@H](CO)C(=O)N[C@@H](CC(C)C)C(=O)N[C@@H](CC(=O)O)C(=O)N[C@@H](C(=O)N1CCC[C@H]1C(=O)N[C@H](C(=O)N[C@@H](CCCCN)C(=O)N[C@@H](CC(C)C)C(=O)N[C@@H](CCCCNC(=O)CC[C@H](NC(=O)CCCCCCCCCCCCCCC(=O)O)C(=O)O)C(=O)N[C@@H](CCCCN)C(=O)N[C@H](C(=O)N[C@@H](CC(C)C)C(=O)N[C@@H](CC(C)C)C(=O)N[C@@H](CCC(=O)O)C(=O)N[C@@H](CCC(N)=O)C(=O)N[C@@H](CCC(=O)O)C(=O)N[C@@H](CCCCN)C(=O)N[C@@H](CCC(N)=O)C(=O)N[C@@H](CCCCN)C(=O)N[C@@H](C)C(=O)N[C@@H](CCC(N)=O)C(=O)N[C@@H](CCCNC(=N)N)C(=O)N[C@@H](CCC(=O)O)C(=O)N[C@@H](CCC(N)=O)C(=O)N[C@@H](C)C(=O)N[C@@H](CCC(=O)O)C(=O)N[C@H](C(=O)N[C@@H](CC(N)=O)C(=O)NC(C)(C)C(=O)N[C@@H](CCC(N)=O)C(=O)N[C@H](C(=O)N[C@@H](CC(C)C)C(=O)N[C@@H](C)C(=O)N[C@@H](CCC(N)=O)C(=O)N[C@H](C(N)=O)C(C)C)[C@@H](C)CC)[C@@H](C)O)[C@@H](C)CC)[C@@H](C)CC)C(C)C)C(C)C` [Cmpd 161] (Ac-IVLSLD[dV]PIKLK([γGlu-C16 diacid])KILLEQEKQKAQREQAETN[Aib]QILAQV-NH2) reads above 50 µM.
For `CC[C@H](C)[C@H](NC(C)=O)C(=O)N[C@H](C(=O)N[C@@H](CC(C)C)C(=O)N[C@@H](CO)C(=O)N[C@@H](CC(C)C)C(=O)N[C@@H](CC(=O)O)C(=O)N[C@@H](C(=O)N1CCC[C@H]1C(=O)N[C@H](C(=O)N[C@@H](CCCCN)C(=O)N[C@@H](CC(C)C)C(=O)N[C@@H](CCCCNC(=O)CC[C@H](NC(=O)CCCCCCCCCCCCCCC(=O)O)C(=O)O)C(=O)N[C@@H](CCCCN)C(=O)N[C@H](C(=O)N[C@@H](CC(C)C)C(=O)N[C@@H](CC(C)C)C(=O)N[C@@H](CCC(=O)O)C(=O)N[C@@H](CCC(N)=O)C(=O)N[C@@H](CCC(=O)O)C(=O)N[C@@H](CCCCN)C(=O)N[C@@H](CCC(N)=O)C(=O)N[C@@H](CCCCN)C(=O)N[C@@H](CCC(=O)O)C(=O)N[C@@H](CCC(N)=O)C(=O)N[C@@H](CCCNC(=N)N)C(=O)N[C@@H](CCC(=O)O)C(=O)N[C@@H](CCC(N)=O)C(=O)N[C@@H](C)C(=O)N[C@@H](CCC(=O)O)C(=O)N[C@H](C(=O)N[C@@H](CC(N)=O)C(=O)NC(C)(C)C(=O)N[C@@H](CCC(N)=O)C(=O)N[C@H](C(=O)N[C@@H](CC(C)C)C(=O)N[C@@H](C)C(=O)N[C@@H](CCC(N)=O)C(=O)N[C@H](C(N)=O)C(C)C)[C@@H](C)CC)[C@@H](C)O)[C@@H](C)CC)[C@@H](C)CC)C(C)C)C(C)C` [Cmpd 168] (Ac-IVLSLD[dV]PIKLK([γGlu-C16 diacid])KILLEQEKQKEQREQAETN[Aib]QILAQV-NH2), the EC50 was above 300 µM.
The result for `CC[C@H](C)[C@H](N)C(=O)N[C@H](C(=O)N[C@@H](CC(C)C)C(=O)N[C@@H](CO)C(=O)N[C@@H](CC(C)C)C(=O)N[C@@H](CC(=O)O)C(=O)N[C@H](C(=O)N1CCC[C@H]1C(=O)N[C@H](C(=O)N[C@@H](CCCCN)C(=O)N[C@@H](CC(C)C)C(=O)N[C@@H](CCCCNC(=O)CC[C@H](NC(=O)CCCCCCCCCCCCCCC(=O)O)C(=O)O)C(=O)N[C@@H](CCC(N)=O)C(=O)N[C@H](C(=O)N[C@@H](CC(C)C)C(=O)N[C@@H](CC(C)C)C(=O)N[C@@H](CCCCN)C(=O)N[C@@H](CCC(N)=O)C(=O)N[C@@H](CCC(=O)O)C(=O)N[C@@H](CCCNC(=N)N)C(=O)N[C@@H](CCC(N)=O)C(=O)N[C@@H](CCCCN)C(=O)N[C@@H](CCCCN)C(=O)N[C@@H](CCC(N)=O)C(=O)N[C@@H](CCCNC(=N)N)C(=O)N[C@@H](CCC(=O)O)C(=O)N[C@@H](CCC(N)=O)C(=O)N[C@@H](C)C(=O)N[C@@H](CCC(=O)O)C(=O)N[C@@H](CCCCN)C(=O)N[C@@H](CC(N)=O)C(=O)N[C@@H](CCCCN)C(=O)N[C@@H](CCC(N)=O)C(=O)N[C@H](C(=O)N[C@@H](CC(C)C)C(=O)N[C@@H](CCC(=O)O)C(=O)N[C@@H](CCC(N)=O)C(=O)N[C@H](C(N)=O)C(C)C)[C@@H](C)CC)[C@@H](C)CC)[C@@H](C)CC)C(C)C)C(C)C` [151 (comp)] (H-IVLSLDVPIKLK([γGlu-C16 diacid])QILLKQERQKKQREQAEKNKQILEQV-NH2) reads 32.9 µM.

Source of the values: patent US20260001928A1 (CORTERIA PHARMACEUTICALS, priority 2022, published 2026).
